# Patent publication US8829000B2, “Substituted imidazo[1,5-A]quinoxalines as phosphodiesterase 9 inhibitors” (ASKA Pharmaceutical Co., Ltd., priority 2006, dated 2014)
# Counter-ions that a name gives are not always drawn.
# System: partial urethra obstruction model in guinea pigs
# Experiment: Dysuria pathological model: cystometry in partial urethra obstruction model
# Type: in vivo, Hartley female guinea pigs
# Settings: guinea pig; for Frequency of occurrence of uninhibited contraction, before administration / Residual urine volume, before administration: baseline
# Experimental: Three-four weeks old Hartley female guinea pigs (Japan SLC, Inc.) were given celiotomy under anesthesia with pentobarbital (30 mg/kg i.p.) and in their urethra to the peripheral side by 1-2 mm from the bladder neck, each a polyethylene tube of […] and 2.0 mm in inner diameter was placed.
# The model was catheterized under anesthesia with urethane (1 g/kg i.p.) at the apex of urinary bladder and right jugular vein for cystometrography and intravenous administration, respectively. The other end of the bladder catheter was connected to a pressure transducer and infusion pump via a three way stop-cock, and physiological saline was continuously infused into the bladder through the infusion pump at a rate of 0.4 mL/min. to induce micturition reflex. Immediately after the micturition reflex was induced, infusion of physiological saline into the bladder was stopped. The intravesical pressure at the time the micturition reflex was induced was measured with the pressure transducer, and the obtained cystometrogram was recorded with pen recorder. The urine voided was collected with disposable type weighing dish and its weight was measured. Further the physiological saline remained in the bladder was sucked with syringe via the bladder catheter and the residual urine volume was measured. The operations of suspending the infusion of physiological saline upon induction of micturition reflex, and about 1 minute thereafter resuming the infusion of physiological saline to induce micturition reflex were repeated plural times (generally 4 times) to stabilize the micturition reflex.
# After stabilizing the micturition reflex, a compound solution (prepared by dissolving the compound or methanesulfonic acid salt thereof in DMSO and diluting it with physiological saline or distilled water) or physiological saline was administered into the vein at a volume of 10 mL/kg over 4 minutes, and simultaneously the above-described micturition reflex operations were repeated until 30 minutes passed after initiation of the administration, while measuring the intravesical pressure and the volumes of micturition and residual urine. Also the frequency of uninhibited contraction occurrence during the above-described operations was recorded.
structure (smiles),measurement,setting,value
CC(C)c1ncc2c(=O)[nH]c3cc(Cl)ccc3n12 [Example 6 (methanesulfonic acid salt)],"Frequency of occurrence of uninhibited contraction, after administration",0.1 mg/kg i.v.,1.82 times/min
same,"Frequency of occurrence of uninhibited contraction, quantitative change",0.1 mg/kg i.v.,+0.62 times/min
same,"Residual urine volume, after administration",0.1 mg/kg i.v.,0.13 mL
same,"Residual urine volume, quantitative change",0.1 mg/kg i.v.,-0.12 mL
same,"Frequency of occurrence of uninhibited contraction, after administration",1 mg/kg i.v.,1.97 times/min
same,"Frequency of occurrence of uninhibited contraction, quantitative change",1 mg/kg i.v.,+0.77 times/min
same,"Residual urine volume, after administration",1 mg/kg i.v.,0.47 mL
same,"Residual urine volume, quantitative change",1 mg/kg i.v.,0.22 mL
same,"Frequency of occurrence of uninhibited contraction, after administration",3 mg/kg i.v.,0.68 times/min
same,"Frequency of occurrence of uninhibited contraction, quantitative change",3 mg/kg i.v.,−0.52 times/min
same,"Residual urine volume, after administration",3 mg/kg i.v.,0.21 mL
same,"Residual urine volume, quantitative change",3 mg/kg i.v.,-0.04 mL
same,"Frequency of occurrence of uninhibited contraction, before administration",dose group 0.1 mg/kg i.v.,1.20 times/min
same,"Residual urine volume, before administration",dose group 0.1 mg/kg i.v.,0.25 mL
same,"Frequency of occurrence of uninhibited contraction, before administration",dose group 1 mg/kg i.v.,1.20 times/min
same,"Residual urine volume, before administration",dose group 1 mg/kg i.v.,0.25 mL
same,"Frequency of occurrence of uninhibited contraction, before administration",dose group 3 mg/kg i.v.,1.20 times/min
same,"Residual urine volume, before administration",dose group 3 mg/kg i.v.,0.25 mL
CC(C)c1ncc2c(=O)[nH]c3cc(C(=O)N(C)C)ccc3n12 [Example 9 (methanesulfonic acid salt)],"Frequency of occurrence of uninhibited contraction, after administration",0.3 mg/kg i.v.,1.45 times/min
same,"Frequency of occurrence of uninhibited contraction, quantitative change",0.3 mg/kg i.v.,−0.64 times/min
same,"Residual urine volume, after administration",0.3 mg/kg i.v.,0.11 mL
same,"Residual urine volume, quantitative change",0.3 mg/kg i.v.,-0.32 mL
same,"Frequency of occurrence of uninhibited contraction, after administration",3 mg/kg i.v.,0.99 times/min
same,"Frequency of occurrence of uninhibited contraction, quantitative change",3 mg/kg i.v.,−1.10 times/min
same,"Residual urine volume, after administration",3 mg/kg i.v.,0.63 mL
same,"Residual urine volume, quantitative change",3 mg/kg i.v.,+0.20 mL
same,"Frequency of occurrence of uninhibited contraction, after administration",10 mg/kg i.v.,0.00 times/min
same,"Frequency of occurrence of uninhibited contraction, quantitative change",10 mg/kg i.v.,−0.57 times/min
same,"Residual urine volume, after administration",10 mg/kg i.v.,0.03 mL
same,"Residual urine volume, quantitative change",10 mg/kg i.v.,-0.34 mL
same,"Frequency of occurrence of uninhibited contraction, before administration",dose group 0.3 mg/kg i.v.,2.09 times/min
same,"Residual urine volume, before administration",dose group 0.3 mg/kg i.v.,0.43 mL
same,"Frequency of occurrence of uninhibited contraction, before administration",dose group 3 mg/kg i.v.,2.09 times/min
same,"Residual urine volume, before administration",dose group 3 mg/kg i.v.,0.43 mL
same,"Frequency of occurrence of uninhibited contraction, before administration",dose group 10 mg/kg i.v.,0.57 times/min
same,"Residual urine volume, before administration",dose group 10 mg/kg i.v.,0.37 mL
